In PubChem BioAssay (NCI):
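48-hour exposure; five concentrations; linearly interpolated endpoints. At the GI50, growth is halved. The concentration for full growth arrest is given as TGI.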

Columns and labels:
Assay in all cases: DTP human tumour cell line panel, 48 h
A549 NSCLC = system: A549 NSCLC
DU-145 prostate = system: DU-145 prostate
HCT-116 colon = system: HCT-116 colon
K-562 leukemia = system: K-562 leukemia
MDA-MB-435 = system: MDA-MB-435
NCI-H522 lung = system: NCI-H522 lung
SK-MEL-2 melanoma = system: SK-MEL-2 melanoma
SR leukemia = system: SR leukemia
SW-620 colon = system: SW-620 colon
UACC-62 melanoma = system: UACC-62 melanoma

| Compound | GI50 (A549 NSCLC) | TGI (A549 NSCLC) | GI50 (DU-145 prostate) | TGI (DU-145 prostate) | GI50 (HCT-116 colon) | TGI (HCT-116 colon) | GI50 (K-562 leukemia) | TGI (K-562 leukemia) | GI50 (MDA-MB-435) | TGI (MDA-MB-435) | GI50 (NCI-H522 lung) | TGI (NCI-H522 lung) | GI50 (SK-MEL-2 melanoma) | TGI (SK-MEL-2 melanoma) | GI50 (SR leukemia) | TGI (SR leukemia) | GI50 (SW-620 colon) | TGI (SW-620 colon) | GI50 (UACC-62 melanoma) | TGI (UACC-62 melanoma) |
| --- | --- | --- | --- | --- | --- | --- | --- | --- | --- | --- | --- | --- | --- | --- | --- | --- | --- | --- | --- | --- |
| CN1CCc2nc3sc(C(N)=O)c(N)c3c(-c3cccs3)c2C1 | 3.37 µM | > 100 µM | 3.91 µM | 86.9 µM | 2.31 µM | > 100 µM | 4.99 µM | > 100 µM | 3.13 µM | > 100 µM | 2.91 µM | 17.8 µM | 2.67 µM | 6.22 µM | 1.8 µM | 7.31 µM | 4.02 µM | > 100 µM | 2.38 µM | 6.56 µM |
| FC(F)(F)c1cccc(-c2nn3ncccc3c2-c2ccnc(Nc3ccc4c(c3)OCCO4)n2)c1 | 12.8 µM | > 25 µM | 19.2 µM | > 25 µM | 9.75 µM | > 25 µM | 8.75 µM | > 25 µM | 13.1 µM | > 25 µM | 14 µM | > 25 µM | > 25 µM | > 25 µM | 10.4 µM | > 25 µM | 9.68 µM | > 25 µM | 15 µM | > 25 µM |
| C[C@@H]1O[C@@H](O[C@@H]2[C@@H](O)[C@H](OCCc3ccc(O)c(O)c3)O[C@H](CO)[C@H]2OC(=O)/C=C/c2ccc(O)c(O)c2)[C@H](O)[C@H](OC2OC[C@](O)(CO)[C@H]2O)[C@H]1O (some centres undefined) | > 100 µM | > 100 µM | 16.9 µM | 48 µM | 30.4 µM | 65.4 µM | 58.5 µM | > 100 µM | 17.5 µM | 34.6 µM | > 100 µM | > 100 µM | 52.6 µM | > 100 µM | > 100 µM | > 100 µM | 22.7 µM | 52.8 µM | > 100 µM | > 100 µM |
| COc1ccc(Nc2ccnc(N3CCN(c4ccnc5cc(Cl)ccc45)CC3)n2)cc1 | 1.47 µM | > 100 µM | 2.59 µM | > 30.5 µM | 0.485 µM | 3.27 µM | 0.444 µM | > 20.8 µM | 0.227 µM | 0.707 µM | 0.321 µM | 1.75 µM | 1.03 µM | 3.27 µM | 0.601 µM | 6.88 µM | 0.739 µM | > 73.1 µM | 0.292 µM | 1.43 µM |
| O=C(O)c1cc(CCc2cc(O)ccc2O)ccc1O | – | > 100 µM | – | > 100 µM | – | > 100 µM | – | > 100 µM | – | > 100 µM | – | > 100 µM | – | > 100 µM | – | > 100 µM | – | > 100 µM | – | > 100 µM |
| COc1cccc(Oc2ccccc2NC(=O)CNC(=O)c2cccc3ccccc23)c1 | 0.315 µM | > 25 µM | 0.703 µM | > 25 µM | 0.0962 µM | 3.77 µM | 0.13 µM | > 25 µM | 0.0711 µM | 0.256 µM | 0.176 µM | 2.02 µM | 0.181 µM | > 25 µM | 0.115 µM | > 25 µM | 0.164 µM | > 25 µM | 0.209 µM | > 25 µM |
| CC(C)C[C@H](NC(=O)CCn1ccc2ccccc2c1=O)B(O)O | 8.41 µM | > 100 µM | 9.13 µM | > 100 µM | 1.55 µM | 19.8 µM | 4.97 µM | > 100 µM | 1.27 µM | 2.81 µM | 2.6 µM | 8.09 µM | 3.58 µM | 32.5 µM | 1.7 µM | 28.9 µM | 3 µM | 12 µM | 4.29 µM | 24.9 µM |
| C=CCC1(C)CCCN(Cc2ccccc2)C1=O (centres undefined) | – | > 10 µM | – | > 10 µM | – | > 10 µM | – | > 10 µM | – | > 10 µM | – | > 10 µM | – | > 10 µM | – | > 10 µM | – | > 10 µM | – | > 10 µM |
| COc1cc(C(=O)c2cc(C)c3[nH]c4ccc(O)cc4c3c2C)cc(OC)c1OC | 0.0191 µM | > 100 µM | 0.0351 µM | > 26.5 µM | < 0.01 µM | – | < 0.01 µM | > 100 µM | < 0.01 µM | 0.018 µM | < 0.01 µM | 2.21 µM | 0.457 µM | > 100 µM | < 0.01 µM | > 100 µM | < 0.0129 µM | > 100 µM | < 0.01 µM | > 100 µM |
